Values belong to the compound of their own block, whether it stands above or below them.
Assays:
human epidermis = conditions: Placzek M et al. 2005; cited from earlier work
collagen type I = experiment: RT-PCR of collagen mRNA in dermal fibroblasts; assay type: cell-based, Human
Experimental: (§1) Total RNA of HDFs and HaCaT was extracted with Trizol reagent followed by reverse transcription to cDNA. The following oligonucleotides were used as primers: collagen type I [5′-[…]-3′ (SEQ ID NO: 1) and 5′-[…]-3′ (SEQ ID NO: 2)], MMP-1 [5′-[…]-3′ (SEQ ID NO: 3) and 5′-[…]-3′ (SEQ ID NO: 4)], and control GAPDH [5′-[…]-3′ (SEQ ID NO: 5) and 5′-[…]-3′ (SEQ ID NO: 6)]. PCR was carried out in a total volume of 30 μl for PCR amplification of cDNA that was reverse-transcribed from the total RNA. After initial denaturation at 95° C. for 5 minutes, amplification was performed in 35 cycles for 30 seconds at 95° C., 20 seconds at 54° C., and 30 seconds at 72° C. This was followed by a final extension at 72° C. for another 10 minutes. GAPDH mRNA level was used for sample standardization.

collagen = experiment: Western blot of collagen protein in fibroblasts; assay type: cell-based, Human; conditions: FIG. 2C
Experimental: (§2) Cells (2×10^5 cells/ml) were seeded in a 60 mm dish and cultured to 80% confluence. Cells were treated with MVE. Cells were then lysed with 1×RIPA buffer (50 mM Tris-HCl, 0.15 M NaCl, 1 mM EDTA, 1% Triton-X100, pH 7.4, 1% SDS, 50 mM NaF, 1 mM Na3VO4, 5 mM Dithiothreitol, 1 mg/ml Leupeptin, and 1 mM phenylmethylsulfonyl fluoride). Sample protein (40 μg) was separated in 10-12% SDS-polyacrylamide gels by electrophoresis. Proteins were transferred to PVDF membranes and incubated with antibodies to collagen (1:1000 rabbit source, Santa Cruz Biotechnology, Santa Cruz, Calif., USA) and matrix metalloproteinase 1 (MMP1, 1:1000 rabbit source, Santa Cruz Biotechnology). Membranes were then washed and incubated with horseradish peroxidase-conjugated anti-rabbit IgG antibody (Santa Cruz Biotechnology). Blots were reacted with western reagent (ECL; Millipore Billerica, Ann Arbor, Mass., USA) and exposed to X-ray film.

HaCaT cells [1] = experiment: Cellular ROS generation assay (DCF-DA) in HaCaT cells; assay type: cell-based, Human; conditions: UVB, MVE 1000 nM, p<0.01, FIG. 5a
Experimental: (§3) Cellular ROS generation was measured using 2′,7′-dichlorodihydrofluorescein diacetate (DCF-DA, Molecular Probes, Eugene, Oreg., USA), as described previously (Hye Kim J et al., Stem cells 33: 542-556). Similarly, mitochondrial ROS (mtROS) generation was measured using Mito-Sox (Molecular Probes). Cells were seeded in 6-well plates in 0.2% FBS and cultured overnight. […] Each well was imaged every 10 minutes for 40 minutes under standard incubation conditions using an IncuCyte™ ZOOM microscope placed inside an incubator. Image-based analysis of fluorescence intensity was carried out using IncuCyte™ software (Essen Bioscience, MI, USA).

HaCaT cells [2] = experiment: MTT viability of HaCaT cells under UVB; assay type: cell-based, Human; conditions: p<0.01, FIG. 4B
Experimental: (§4) Human dermal fibroblasts (HDFs) and immortalized keratinocyte cell line (HaCaT) were cultured using DMEM (low, high glucose, Hyclone, Thermo Scientific, Logan, Utah, USA) supplemented with 10% FBS (Gibco, Invitrogen, Carlsbad, Calif., USA), 1% penicillin, and streptomycin (Gibco) at 37° C. with 5% CO2 in a humidified atmosphere (Kim W S et al., (2009) Journal of dermatological science 53: 96-102). Said cultures were performed by exchanging with fresh media every two days.
(§5) HDFs (3×10^4 cells/well) and HaCaT (4×10^4 cells/well) were seeded in 6-well plates. Cells were treated with various concentrations of MVE. Cells were then incubated for 48 hours and the MTT assay was performed. MTT solution (5 mg/ml in phosphate buffered saline) was added to each well at 1/20 of the media volume, incubated for 2 hours, and then supernatant was removed. Dimethyl sulfoxide (DMSO) was then added to dissolve formazan crystals, and the absorbance was measured at 595 nm using an ELISA reader (TECAN, Grodig, Austria).

[3] = tested on: matrix metalloproteinase 1 (MMP1); experiment: RT-PCR of MMP1 mRNA in dermal fibroblasts; assay type: cell-based, Human
Experimental: as §1

fibroblasts [4] = experiment: Mitochondrial ROS generation assay (Mito-Sox) in fibroblasts; assay type: cell-based, Human; conditions: UVB, MVE 1000 nM, p<0.01, FIG. 3b
Experimental: as §3

fibroblasts [5] = experiment: Cellular ROS generation assay (DCF-DA) in fibroblasts; assay type: cell-based, Human; conditions: UVB, MVE 1000 nM, p<0.01, FIG. 3a
Experimental: as §3

[6] = tested on: Human dermal fibroblasts (HDFs); experiment: MTT proliferation assay in dermal fibroblasts; assay type: cell-based; conditions: 100~1000 nM; p<0.01; FIG. 1B
Experimental: as §4, §5

[7] = tested on: Human dermal fibroblasts (HDFs); experiment: MTT viability of dermal fibroblasts under UVB irradiation; assay type: cell-based
Experimental: as §4, §5

[8] = tested on: matrix metalloproteinase 1 (MMP1); experiment: Western blot of MMP1 protein in fibroblasts; assay type: cell-based, Human; conditions: FIG. 2C
Experimental: as §2

HaCaT cells [9] = experiment: Mitochondrial ROS generation assay (Mito-Sox) in HaCaT cells; assay type: cell-based, Human; conditions: UVB, MVE 1000 nM, p<0.01, FIG. 5b
Experimental: as §3

HaCaT cells [10] = experiment: MTT proliferation assay in HaCaT cells; assay type: cell-based, Human; conditions: dose-dependent; p<0.05; FIG. 4A
Experimental: as §4, §5

p53 = p53 protein levels in HaCaT cells after UVB; assay type: cell-based, Human; conditions: FIG. 4C
HaCaT keratinocytes = conditions: Shibata A et al. 2010; cited from earlier work
[11] = dermal fibroblasts, no UVB, FIG. 2A

Compound: Cc1c(C)c2c(c(C)c1O)CC[C@@](C)(CCC[C@H](C)CCC[C@H](C)CCCC(C)C)O2 [D-alpha-tocopherol]
UVB-induced DNA damage (human epidermis): prevented

MMP1 mRNA expression [3, 11]: down-regulated
mRNA level of MMP1 increased by UVB ([3]; fibroblasts with UVB, FIG. 2B): reduced
Compound: Cc1c(C)c2c(c(C)c1O)CCC(C)(CC[P+](c1ccccc1)(c1ccccc1)c1ccccc1)O2.[Br-] (centres unmarked) [MVE]
collagen mRNA expression (collagen type I; [11]): increased
mRNA level of collagen reduced by UVB irradiation (collagen type I; fibroblasts with UVB, FIG. 2B): attenuated
protein level of collagen (collagen): altered
cytosolic ROS level: fluorescent signal intensity of DCF-DA (HaCaT cells [1]): attenuated
UVB-reduced cell viability (HaCaT cells [2]): increased
mitochondria ROS production: signal intensity of mito-Sox (fibroblasts [4]): reduced
cytosolic ROS level: fluorescent signal intensity of DCF-DA (fibroblasts [5]): attenuated
fibroblast proliferation [6]: increased
protection of fibroblasts from UVB ([7]; 10~1000 nM, p<0.01, FIG. 1C): protected
fibroblast survival (UVB irradiation), low concentrations ([7]; UVB 200 mJ, 0.1 and 1 μM, concentration-dependent, FIG. 1A): increased
fibroblast survival (UVB irradiation), high concentrations ([7]; UVB 200 mJ, 10 to 100 μM, concentration-dependent, FIG. 1A): decreased
protein level of MMP1 [8]: altered
mitochondrial ROS production: signal intensity of mito-Sox (HaCaT cells [9]): reduced
proliferation of HaCaT cells (HaCaT cells [10]): significantly increased
UVB-induced p53 protein levels (p53): reduced

Compound: CC(C)=CCC/C(C)=C/CC/C(C)=C/CC[C@]1(C)CCc2cc(O)c(C)c(C)c2O1 [γ-tocotrienol]
protection from UVB induced inflammation (HaCaT keratinocytes): protected

Compound: vitamin E [reference compound]
survival of dermal fibroblasts from UVB irradiation ([7]; UVB 200 mJ, 0.1 to 100 μM, FIG. 1A): slightly increased
